Measured values reported in the supplement of paper PMC10307832.

Key:
Experiment in all cases: relative viability (nuclei count vs DMSO), 5 days (fraction); higher = more cells survive
Axitinib + Bortezomib = compound: CNC(=O)c1ccccc1Sc1ccc2c(/C=C/c3ccccn3)n[nH]c2c1 [Axitinib] + CC(C)C[C@H](NC(=O)[C@H](Cc1ccccc1)NC(=O)c1cnccn1)B(O)O [Bortezomib] (partner 0.002 µM)
How it was run: (§1)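 Lung cancer cell lines in 1536-well plates were dosed by pin tool the day after seeding, either with one drug alone or with a fixed anchor-drug dose plus five library-drug doses (not always all listed) in √10 steps. After 5 days, cells were fixed and their nuclei stained in one step (final 0.05% Triton X-100, 1% formaldehyde, 1 ug/ml Hoechst), then counted on 4× images. Relative viability is the nuclei count in treated wells divided by that in vehicle wells. Values are medians of duplicate plates.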

Bemcentinib + Foretinib = compound: Nc1nc(Nc2ccc3c(c2)CC[C@@H](N2CCCC2)CC3)nn1-c1cc2c(nn1)-c1ccccc1CCC2 [Bemcentinib] + COc1cc2c(Oc3ccc(NC(=O)C4(C(=O)Nc5ccc(F)cc5)CC4)cc3F)ccnc2cc1OCCCN1CCOCC1 [Foretinib] (partner 0.25 µM)
How it was run: as §1

Bemcentinib + Lapatinib = compound: Nc1nc(Nc2ccc3c(c2)CC[C@@H](N2CCCC2)CC3)nn1-c1cc2c(nn1)-c1ccccc1CCC2 [Bemcentinib] + CS(=O)(=O)CCNCc1ccc(-c2ccc3ncnc(Nc4ccc(OCc5cccc(F)c5)c(Cl)c4)c3c2)o1 [Lapatinib] (partner 2 µM)
How it was run: as §1

Bemcentinib + Crizotinib = compound: Nc1nc(Nc2ccc3c(c2)CC[C@@H](N2CCCC2)CC3)nn1-c1cc2c(nn1)-c1ccccc1CCC2 [Bemcentinib] + C[C@@H](Oc1cc(-c2cnn(C3CCNCC3)c2)cnc1N)c1c(Cl)ccc(F)c1Cl [Crizotinib] (partner 1 µM)
How it was run: as §1

Work on A-427 yielded a relative viability (Axitinib + Bortezomib; first compound 0.005 µM) of 1.07, a relative viability (Axitinib + Bortezomib; first compound 0.01581 µM) of 1.04 and a relative viability (Axitinib + Bortezomib; first compound 0.05 µM) of 0.988. For the same cell line, the relative viability (Axitinib + Bortezomib; first compound 0.1581 µM) was 1.06, the relative viability (Axitinib + Bortezomib; first compound 0.5 µM) was 1.13 and the relative viability (Bemcentinib + Foretinib; first compound 0.04 µM) was 1.09. The relative viability (Bemcentinib + Foretinib; first compound 0.1265 µM) was 1.1, the relative viability (Bemcentinib + Foretinib; first compound 0.4 µM) was 1.24 and the relative viability (Bemcentinib + Foretinib; first compound 1.265 µM) was 1.06. For the same cell line, the relative viability (Bemcentinib + Foretinib; first compound 4 µM) was 1.19, the relative viability (Bemcentinib + Lapatinib; first compound 0.1265 µM) was 0.959 and the relative viability (Bemcentinib + Lapatinib; first compound 0.4 µM) was 1.06. It also gave a relative viability (Bemcentinib + Lapatinib; first compound 1.265 µM) of 1.09, a relative viability (Bemcentinib + Lapatinib; first compound 4 µM) of 1.03 and a relative viability (Bemcentinib + Crizotinib; first compound 0.1265 µM) of 0.95. It also gave a relative viability (Bemcentinib + Crizotinib; first compound 0.4 µM) of 0.843, a relative viability (Bemcentinib + Crizotinib; first compound 1.265 µM) of 0.931 and a relative viability (Bemcentinib + Crizotinib; first compound 4 µM) of 0.863.

In the case of LXF-289, the relative viability (Axitinib + Bortezomib; first compound 0.005 µM) was 0.977, the relative viability (Axitinib + Bortezomib; first compound 0.01581 µM) was 0.918 and the relative viability (Axitinib + Bortezomib; first compound 0.05 µM) was 0.974. It also gave a relative viability (Axitinib + Bortezomib; first compound 0.1581 µM) of 0.974, a relative viability (Axitinib + Bortezomib; first compound 0.5 µM) of 1 and a relative viability (Bemcentinib + Foretinib; first compound 0.04 µM) of 0.959. For the same cell line, the relative viability (Bemcentinib + Foretinib; first compound 0.1265 µM) was 1.06, the relative viability (Bemcentinib + Foretinib; first compound 0.4 µM) was 0.976 and the relative viability (Bemcentinib + Foretinib; first compound 1.265 µM) was 0.983. It also gave a relative viability (Bemcentinib + Foretinib; first compound 4 µM) of 0.994, a relative viability (Bemcentinib + Lapatinib; first compound 0.04 µM) of 0.887 and a relative viability (Bemcentinib + Lapatinib; first compound 0.1265 µM) of 0.908. For the same cell line, the relative viability (Bemcentinib + Lapatinib; first compound 0.4 µM) was 0.988, the relative viability (Bemcentinib + Lapatinib; first compound 1.265 µM) was 0.972 and the relative viability (Bemcentinib + Lapatinib; first compound 4 µM) was 0.924. It also gave a relative viability (Bemcentinib + Crizotinib; first compound 0.04 µM) of 0.88, a relative viability (Bemcentinib + Crizotinib; first compound 0.1265 µM) of 0.833 and a relative viability (Bemcentinib + Crizotinib; first compound 0.4 µM) of 0.817. It also gave a relative viability (Bemcentinib + Crizotinib; first compound 1.265 µM) of 0.791 and a relative viability (Bemcentinib + Crizotinib; first compound 4 µM) of 0.877.

Work on NCI-H1355 yielded a relative viability (Axitinib + Bortezomib; first compound 0.005 µM) of 1.26, a relative viability (Axitinib + Bortezomib; first compound 0.01581 µM) of 1.13 and a relative viability (Axitinib + Bortezomib; first compound 0.05 µM) of 1.32. It also gave a relative viability (Axitinib + Bortezomib; first compound 0.1581 µM) of 1.17, a relative viability (Axitinib + Bortezomib; first compound 0.5 µM) of 1.15 and a relative viability (Bemcentinib + Foretinib; first compound 0.04 µM) of 0.958. For the same cell line, the relative viability (Bemcentinib + Foretinib; first compound 0.1265 µM) was 1.12, the relative viability (Bemcentinib + Foretinib; first compound 0.4 µM) was 1.03 and the relative viability (Bemcentinib + Foretinib; first compound 1.265 µM) was 1.04. For the same cell line, the relative viability (Bemcentinib + Foretinib; first compound 4 µM) was 0.98, the relative viability (Bemcentinib + Lapatinib; first compound 0.04 µM) was 0.908 and the relative viability (Bemcentinib + Lapatinib; first compound 0.1265 µM) was 1.1. The relative viability (Bemcentinib + Lapatinib; first compound 0.4 µM) was 1.04, the relative viability (Bemcentinib + Lapatinib; first compound 1.265 µM) was 1.13 and the relative viability (Bemcentinib + Lapatinib; first compound 4 µM) was 1.07. For the same cell line, the relative viability (Bemcentinib + Crizotinib; first compound 0.04 µM) was 1.08, the relative viability (Bemcentinib + Crizotinib; first compound 0.1265 µM) was 1.18 and the relative viability (Bemcentinib + Crizotinib; first compound 0.4 µM) was 1.07. For the same cell line, the relative viability (Bemcentinib + Crizotinib; first compound 1.265 µM) was 1.14 and the relative viability (Bemcentinib + Crizotinib; first compound 4 µM) was 1.17.

NCI-H1437 was tested, and the relative viability (Axitinib + Bortezomib; first compound 0.005 µM) was 0.515, the relative viability (Axitinib + Bortezomib; first compound 0.01581 µM) was 0.542 and the relative viability (Axitinib + Bortezomib; first compound 0.05 µM) was 0.55. It also gave a relative viability (Axitinib + Bortezomib; first compound 0.1581 µM) of 0.446, a relative viability (Axitinib + Bortezomib; first compound 0.5 µM) of 0.589 and a relative viability (Bemcentinib + Foretinib; first compound 0.04 µM) of 1.28. For the same cell line, the relative viability (Bemcentinib + Foretinib; first compound 0.1265 µM) was 1.26, the relative viability (Bemcentinib + Foretinib; first compound 0.4 µM) was 1.33 and the relative viability (Bemcentinib + Foretinib; first compound 1.265 µM) was 1.21. The relative viability (Bemcentinib + Foretinib; first compound 4 µM) was 1.3, the relative viability (Bemcentinib + Lapatinib; first compound 0.04 µM) was 0.798 and the relative viability (Bemcentinib + Lapatinib; first compound 0.1265 µM) was 0.764. For the same cell line, the relative viability (Bemcentinib + Lapatinib; first compound 0.4 µM) was 0.854, the relative viability (Bemcentinib + Lapatinib; first compound 1.265 µM) was 0.771 and the relative viability (Bemcentinib + Lapatinib; first compound 4 µM) was 0.882. It also gave a relative viability (Bemcentinib + Crizotinib; first compound 0.04 µM) of 0.931, a relative viability (Bemcentinib + Crizotinib; first compound 0.1265 µM) of 1.04 and a relative viability (Bemcentinib + Crizotinib; first compound 0.4 µM) of 0.972. For the same cell line, the relative viability (Bemcentinib + Crizotinib; first compound 1.265 µM) was 0.984 and the relative viability (Bemcentinib + Crizotinib; first compound 4 µM) was 0.967.

NCI-H1793 was tested, and the relative viability (Bemcentinib + Foretinib; first compound 0.04 µM) was 0.816, the relative viability (Bemcentinib + Foretinib; first compound 0.1265 µM) was 0.726 and the relative viability (Bemcentinib + Foretinib; first compound 0.4 µM) was 0.772. It also gave a relative viability (Bemcentinib + Foretinib; first compound 4 µM) of 0.693, a relative viability (Bemcentinib + Lapatinib; first compound 0.04 µM) of 0.488 and a relative viability (Bemcentinib + Lapatinib; first compound 0.1265 µM) of 0.621. The relative viability (Bemcentinib + Lapatinib; first compound 0.4 µM) was 0.693, the relative viability (Bemcentinib + Lapatinib; first compound 1.265 µM) was 0.582 and the relative viability (Bemcentinib + Lapatinib; first compound 4 µM) was 0.75.

For A549, the relative viability (Bemcentinib + Foretinib; first compound 0.04 µM) was 0.95, the relative viability (Bemcentinib + Foretinib; first compound 0.1265 µM) was 1.03 and the relative viability (Bemcentinib + Foretinib; first compound 0.4 µM) was 0.977. It also gave a relative viability (Bemcentinib + Foretinib; first compound 1.265 µM) of 1.08, a relative viability (Bemcentinib + Foretinib; first compound 4 µM) of 1.11 and a relative viability (Bemcentinib + Lapatinib; first compound 0.04 µM) of 0.954. For the same cell line, the relative viability (Bemcentinib + Lapatinib; first compound 0.1265 µM) was 0.999, the relative viability (Bemcentinib + Lapatinib; first compound 0.4 µM) was 1.14 and the relative viability (Bemcentinib + Lapatinib; first compound 1.265 µM) was 0.956. It also gave a relative viability (Bemcentinib + Lapatinib; first compound 4 µM) of 1.02, a relative viability (Bemcentinib + Crizotinib; first compound 0.04 µM) of 0.786 and a relative viability (Bemcentinib + Crizotinib; first compound 0.1265 µM) of 0.795. The relative viability (Bemcentinib + Crizotinib; first compound 0.4 µM) was 0.966, the relative viability (Bemcentinib + Crizotinib; first compound 1.265 µM) was 0.824 and the relative viability (Bemcentinib + Crizotinib; first compound 4 µM) was 0.742.

In the case of ChaGo-K-1, the relative viability (Axitinib + Bortezomib; first compound 0.005 µM) was 0.953, the relative viability (Axitinib + Bortezomib; first compound 0.01581 µM) was 0.919 and the relative viability (Axitinib + Bortezomib; first compound 0.05 µM) was 1.13. It also gave a relative viability (Axitinib + Bortezomib; first compound 0.1581 µM) of 1.05, a relative viability (Axitinib + Bortezomib; first compound 0.5 µM) of 1.16 and a relative viability (Bemcentinib + Foretinib; first compound 0.04 µM) of 0.93. It also gave a relative viability (Bemcentinib + Foretinib; first compound 0.1265 µM) of 1.04, a relative viability (Bemcentinib + Foretinib; first compound 0.4 µM) of 0.899 and a relative viability (Bemcentinib + Foretinib; first compound 1.265 µM) of 0.951. It also gave a relative viability (Bemcentinib + Foretinib; first compound 4 µM) of 0.906, a relative viability (Bemcentinib + Crizotinib; first compound 0.04 µM) of 1.12 and a relative viability (Bemcentinib + Crizotinib; first compound 0.1265 µM) of 1.33. The relative viability (Bemcentinib + Crizotinib; first compound 0.4 µM) was 1.15, the relative viability (Bemcentinib + Crizotinib; first compound 1.265 µM) was 1.18 and the relative viability (Bemcentinib + Crizotinib; first compound 4 µM) was 1.12.

Work on SW 900 yielded a relative viability (Bemcentinib + Foretinib; first compound 0.04 µM) of 0.827, a relative viability (Bemcentinib + Foretinib; first compound 0.1265 µM) of 0.948 and a relative viability (Bemcentinib + Foretinib; first compound 0.4 µM) of 0.976. For the same cell line, the relative viability (Bemcentinib + Foretinib; first compound 1.265 µM) was 1.05 and the relative viability (Bemcentinib + Foretinib; first compound 4 µM) was 0.974.

Cell Line NCI-H2342 has a relative viability (Bemcentinib + Foretinib; first compound 0.04 µM) of 1.04, a relative viability (Bemcentinib + Foretinib; first compound 0.1265 µM) of 1.12 and a relative viability (Bemcentinib + Foretinib; first compound 0.4 µM) of 1.09. The relative viability (Bemcentinib + Foretinib; first compound 1.265 µM) was 1.06 and the relative viability (Bemcentinib + Foretinib; first compound 4 µM) was 1.13.

NCI-H441 gave a relative viability (Axitinib + Bortezomib; first compound 0.005 µM) of 0.626, a relative viability (Axitinib + Bortezomib; first compound 0.01581 µM) of 0.54 and a relative viability (Axitinib + Bortezomib; first compound 0.05 µM) of 0.444. For the same cell line, the relative viability (Axitinib + Bortezomib; first compound 0.1581 µM) was 0.465, the relative viability (Axitinib + Bortezomib; first compound 0.5 µM) was 0.443 and the relative viability (Bemcentinib + Foretinib; first compound 0.04 µM) was 1.16. For the same cell line, the relative viability (Bemcentinib + Foretinib; first compound 0.1265 µM) was 1.05, the relative viability (Bemcentinib + Foretinib; first compound 0.4 µM) was 0.892 and the relative viability (Bemcentinib + Foretinib; first compound 1.265 µM) was 0.917. For the same cell line, the relative viability (Bemcentinib + Foretinib; first compound 4 µM) was 0.875, the relative viability (Bemcentinib + Crizotinib; first compound 0.04 µM) was 0.66 and the relative viability (Bemcentinib + Crizotinib; first compound 0.1265 µM) was 0.704. The relative viability (Bemcentinib + Crizotinib; first compound 0.4 µM) was 0.757, the relative viability (Bemcentinib + Crizotinib; first compound 1.265 µM) was 0.665 and the relative viability (Bemcentinib + Crizotinib; first compound 4 µM) was 0.779.
